Experimental data reported in patent US20250194651A1, “STEVIOL GLYCOSIDE CONCENTRATES AND HIGHLY SOLUBLE STEVIOL GLYCOSIDES” (CARGILL, INCORPORATED, priority 2022, published 2025).
Where two headings read alike, the source gives them in different places.

Columns and labels:
[1] = Initial solubility in aqueous solution (visual dissolution on heating); format: physicochemical
Method: (§1) Solutions were prepared by mixing one or more steviol glycoside component in purified water at ambient temperature. Solubility enhancers, preservatives, or ethanol were included only where expressly indicated and, when used, were added to the initial mixture prior to heating and dissolution. The mixtures were premixed and then subsequently heated via heat block or oven. Solutions took approximately one or two minutes to reach the target temperature, and then were maintained at the target temperature at least until complete dissolution of solids. Dissolution of solids was monitored visually during heating. After the heating period, fully dissolved solutions were permitted to cool to room temperature and were monitored for initial precipitation.
Various individual steviol glycosides were tested to evaluate initial solubility in aqueous solution as well as the long-term stability in solution. Ingredients were combined in purified water at room temperature then heated to 85° C. with a heating block to effect dissolution. […]

[2] = Long-term solution stability (visual crystallization/precipitation time); format: physicochemical; settings: for time until solution crashes out: solution of 1%
Method: as §1
Solutions were further monitored for stability over periods of hours, days, weeks, and longer. Multiple techniques were utilized to evaluate stability. […] Solutions were also evaluated by recovering dissolved solids and then calculating percent recovery. If necessary, the solutions were filtered to remove undissolved material to assure that percent recovery reflected only dissolved steviol glycosides.
The rebaudioside M and A blend was further observed hourly for the first several hours, then monitored daily to evaluate long-term stability. Steviol glycoside binary blends in aqueous solvent (1%) were prepared from as an […].
Amounts of rebaudioside M and rebaudioside A in varying ratios were combined with purified water at room temperature and then heated to 85° C. with a heating block to effect dissolution. For example, for batches formulated to provide a concentration of about 10% DS, approximately 25 mg of each of rebaudioside M and rebaudioside A were dissolved in 500 μL of purified water. Samples were monitored until crystallization occurred or for at least 40 days. Solutions that remained clear and free of visible precipitation are identified in the tables below.
Steviol glycoside solutions of rebaudioside M and rebaudioside A were tested to determine if non-aqueous solvent was beneficial or detrimental to solution stability. Ingredients were combined in purified water at room temperature then heated to 85° C. with a heating block to effect dissolution. The solution was allowed to cool to ambient temperature, and then visually monitored for precipitation.

[3] = Aqueous solubility (background values); format: physicochemical; settings: heating in near boiling water for 2 hours
[4] = cited from earlier work
[5] = conventional formulations, aqueous solution at 25° C., WO 2017/120480 A1
[6] = 0.49% DS, after dissolution at 85° C.

C=C1C[C@@]23CC[C@H]4[C@@](C)(CCC[C@@]4(C)C(=O)O[C@@H]4O[C@H](CO)[C@@H](O)[C@H](O)[C@H]4O[C@@H]4O[C@H](CO)[C@@H](O)[C@H](O)[C@H]4O)[C@@H]2CC[C@]1(O[C@@H]1O[C@H](CO)[C@@H](O)[C@H](O[C@@H]2O[C@H](CO)[C@@H](O)[C@H](O)[C@H]2O)[C@H]1O[C@@H]1O[C@H](CO)[C@@H](O)[C@H](O)[C@H]1O)C3 [D, rebaudioside D]
dissolution ([1]; 1% DS in water, heated to 85° C. for 20 minutes, cooled to room temperature (FIG. 1)): failed to dissolve
dissolution ([1]; 1% DS in water, heated to 85° C. for 20 minutes, cooled to room temperature (FIG. 1), listed as Reb D): cannot achieve dissolution
Crystallization Time ([2]; 0.48% DS (Reb D), 0.5% DS (Total)): <2 h
Crystallization Time ([2]; 0.48% DS, after dissolution at 85° C.): <2 h
concentration temporarily dissolved [3]: 0.8 wt %
dissolved content in aqueous solution [4, 5]: about 0.05 wt %

rebaudioside B
Crystallization Time ([2]; 0.47% DS, heated to 85° C.): Immediate

C=C1C[C@@]23CC[C@H]4[C@@](C)(CCC[C@@]4(C)C(=O)O[C@@H]4O[C@H](CO)[C@@H](O)[C@H](O[C@@H]5O[C@H](CO)[C@@H](O)[C@H](O)[C@H]5O)[C@H]4O[C@@H]4O[C@H](CO)[C@@H](O)[C@H](O)[C@H]4O)[C@@H]2CC[C@]1(O[C@@H]1O[C@H](CO)[C@@H](O)[C@H](O[C@@H]2O[C@H](CO)[C@@H](O)[C@H](O)[C@H]2O)[C@H]1O[C@@H]1O[C@H](CO)[C@@H](O)[C@H](O)[C@H]1O)C3 [M (RM01), rebaudioside M]
Soluble? [1]: Y
Crystallization Time ([2]; 0.33% DS, after dissolution at 85° C.): <72 h

C=C1C[C@@]23CC[C@H]4[C@@](C)(CCC[C@@]4(C)C(=O)O[C@@H]4O[C@H](CO)[C@@H](O)[C@H](O)[C@H]4O)[C@@H]2CC[C@]1(O[C@@H]1O[C@H](CO)[C@@H](O)[C@H](O[C@@H]2O[C@H](CO)[C@@H](O)[C@H](O)[C@H]2O)[C@H]1O[C@@H]1O[C@H](CO)[C@@H](O)[C@H](O)[C@H]1O)C3 [rebaudioside A]
appearance (FIG. 3, bottom) ([2]; about 10% DS, only rebaudioside A): intense precipitation
time until solution crashes out [2]: ≤ 72 h
dissolved content in aqueous solution ([4]; purified, in water at 25° C., WO 2012/082587 A2): about 0.8 wt %

C=C1C[C@@]23CC[C@H]4[C@@](C)(CCC[C@@]4(C)C(=O)O[C@@H]4O[C@H](CO)[C@@H](O)[C@H](O[C@@H]5O[C@H](CO)[C@@H](O)[C@H](O)[C@H]5O)[C@H]4O[C@@H]4O[C@H](CO)[C@@H](O)[C@H](O)[C@H]4O)[C@@H]2CC[C@]1(O[C@@H]1O[C@H](CO)[C@@H](O)[C@H](O[C@@H]2O[C@H](CO)[C@@H](O)[C@H](O)[C@H]2O)[C@H]1O[C@@H]1O[C@H](CO)[C@@H](O)[C@H](O)[C@H]1O)C3 [rebaudioside M]
time until solution crashes out [2]: less than an hour
dissolved content in aqueous solution [4, 5]: about 0.1 wt %
dissolved concentration in aqueous solution ([4]; room temperature, freeze or spray dried, WO '480, stability over time not reported): 0.5 wt %

C=C1C[C@@]23CC[C@H]4[C@@](C)(CCC[C@@]4(C)C(=O)O[C@@H]4O[C@H](CO)[C@@H](O)[C@H](O)[C@H]4O[C@@H]4O[C@@H](C)[C@H](O)[C@@H](O)[C@H]4O)[C@@H]2CC[C@]1(O[C@@H]1O[C@H](CO)[C@@H](O)[C@H](O[C@@H]2O[C@H](CO)[C@@H](O)[C@H](O)[C@H]2O)[C@H]1O[C@@H]1O[C@H](CO)[C@@H](O)[C@H](O)[C@H]1O)C3 [J, rebaudioside J]
Soluble? [1]: Y
dissolution ([1]; 1% solution, purified water, heated to 85° C.): failed to dissolve
Crystallization Time ([2]; 0.53% DS, after dissolution at 85° C.): <2 h

C=C1C[C@@]23CC[C@H]4[C@@](C)(CCC[C@@]4(C)C(=O)O[C@@H]4O[C@H](CO)[C@@H](O)[C@H](O)[C@H]4O[C@@H]4O[C@H](CO)[C@@H](O)[C@H](O)[C@H]4O)[C@@H]2CC[C@]1(O[C@@H]1O[C@H](CO)[C@@H](O)[C@H](O)[C@H]1O[C@@H]1O[C@H](CO)[C@@H](O)[C@H](O)[C@H]1O)C3 [E, rebaudioside E]
Crystallization Time [2, 6]: 336 h

C=C1C[C@@]23CC[C@H]4[C@@](C)(CCC[C@@]4(C)C(=O)O[C@@H]4O[C@H](CO)[C@@H](O)[C@H](O[C@@H]5O[C@H](CO)[C@@H](O)[C@H](O)[C@H]5O)[C@H]4O[C@@H]4O[C@@H](C)[C@H](O)[C@@H](O)[C@H]4O)[C@@H]2CC[C@]1(O[C@@H]1O[C@H](CO)[C@@H](O)[C@H](O[C@@H]2O[C@H](CO)[C@@H](O)[C@H](O)[C@H]2O)[C@H]1O[C@@H]1O[C@H](CO)[C@@H](O)[C@H](O)[C@H]1O)C3 [N, rebaudioside N]
Soluble? [1]: Y
Crystallization Time [2, 6]: <1 h
